We go through five compounds from US20240368226A1, “Cyclic Cell Penetrating Peptides For Treating Neisseria Gonorrhoeae Infections” (priority 2023, published 2024).

In data set [1] the test system is End1/E6E7 endocervical cells. Nature of the data set: LDH release cytotoxicity, End1/E6E7. Type of data set: cell-based, human. More on the design: cytotoxicity, End1/E6E7: unit of the concentration uncertain. The protocol:
(§1) To determine whether the CPPs were cytotoxic for human cells, the relative amount of LDH released from immortalized End1/E6E7 endocervical cells, ME 180 cervical cells and THP-1 monocytic cells was measured following 18 h treatment (FIG. 9A-C). […] The cytotoxicity of the endogenous AMP LL-37 was analyzed as a comparator.
(§2) We analyzed the levels of lactate dehydrogenase (LDH) released from dying human End1/E6E7 epithelial endocervical cells1, ME-180 epithelial cervical2, and THP-1 monocytes due to cytotoxicity from exposure to the CPP structural analogs or LL-37 using the Cyquant LDH Cytotoxicity Assay Kit (Invitrogen ThermoFisher Scientific). The THP-1 cells were activated overnight by incubation with 10 ng/ml of phorbol myristate acetate (PMA; Sigma-Aldrich). After washing, cells were trypsinized, and then 1.0×10^4 cells in 100-μL media were plated per well in 96-well plates. For the activated THP-1 and ME-180 cells, Opti-MEM (Gibco) with 1% FBS was used. For the End1/E6E7 cells Keratinocyte-Scrum Free Media (ThermoFisher Scientific) with supplements was used. After plating, the activated THP-1 cells were incubated for 4-5 h and the End1/E6E7 and ME-180-cells were incubated overnight. Next stock solutions of the CPPs or LL-37 were diluted in PBS and aliquots were added to wells to create final concentrations of 100 and 200 μM of the CPPs, or 20 and 40 μM of LL-37 in total volumes of 100 μL per well. Negative control wells were treated with vehicle only, which was 1% DMSO in media. Vehicle controls for LL-37 were wells with Opti-MEM with 1% FBS only. After adding the test reagents, plates were gently mixed and incubated at 37° C. and 5% CO2 for 18 h. Positive control wells were treated with 10 μL of the Triton X-100 Lysis Buffer provided with the Cyquant kit according to the directions of the vendor. Then the levels of LDH in supernatants were quantified using a kit (Roche, Mannheim, DE, USA) with detection on an Epoch (Biotek Instruments, Winooski, Vermont, USA) microtiter plate reader at 490 nm with 680 nm subtracted. The results were reported as the percentage of LDH released from cells treated with LL-37 or CPP relative to LDH released from control cells treated with vehicle-only.

The test system of data set [2] is S. aureus strains 8325-4 and Newman. Type of data set: cell-based, Staphylococcus aureus. The protocol: The sensitivity of a Gram positive species was also tested.
N. flavescens strain 4322, N. lactamica strain 1934, and N. subflava strain 52, were available from the collections of the late Dr. Herman Schneider of the Walter Reed Army Institute of Research and of the Neisseria Repository that was formerly housed at UC Berkeley. The 8325-4 and Newman are strains of S. aureus. The latter is β-hemolytic.
S. aureus were grown overnight on Difco GC agar containing 1% BBL Isovitalex Enrichment. Using a sterile cotton swab, bacterial colonies were placed in suspension in GC broth containing 1% BBL Isovitalex. Absorbance of the bacterial suspension at 595 nm was determined to enable dilution to approximately 4×10^6 cells/mL in GC broth. Aliquots of the suspension containing 8×10^5 bacteria along with the CPPs, diluted from stock solutions in DMSO, were added in GC broth containing 1% BBL Isovitalex to make a total volume of 200 μL/well. Bacteria in GC broth with Isovitalex and 1% DMSO were added to vehicle-only control wells. […] After incubation in 5% CO2 at 37° C. for 18 h, plates were analyzed at 600-nm on an Epoch microtiter plate reader. The percentage inhibition of each sample was determined relative to the absorbance of the blank (GC broth only) and the vehicle-only controls. […] If no growth was observed on the plate, then that test concentration was determined to be inhibitory.

The test system of a further data set is ME-180 cervical cells. Nature of the data set: LDH release cytotoxicity, ME-180. The class given is cell-based, human. The arrangement: cytotoxicity, ME-180: unit of the concentration uncertain. As to the method: as §1, §2
In the next data set the test system is sheep red blood cells. The class given is cell-based. As to the method: In vitro assessment of hemolysis is important in determining the potential cytotoxicity of any material or drug that would be in contact with blood. Various protocols for determining hemolytic potential have been reported. A procedure recommended for analysis of the hemolytic potential of drug substances for RBCs using 0.1% Triton as the positive control and a 1 h incubation period was performed.
The CPPs or the vehicle (DMSO and 0.1% Triton X-100), were diluted in PBS. Washed pooled sheep red blood cells (sRBCs; Rockland, R405-0050, 10% v/v) were diluted to 2.1% in PBS. Then 190 μL of the cell suspension was added to the wells of a 96-well plate (Corning CellBIND). Solutions (10 μL) containing the linear or DE or TE cyclized forms of the CPP at 4,000 or 2,000 μM or the DMSO and PBS vehicle were added to wells with sRBCs in triplicate. As a positive control three wells were treated with 10 μL of 2% Triton X-100. The 96 well plates were incubated at 37° C. and 5% CO2 for 1 h, and then centrifugated at 1,000×g for 5 min. Supernatant (100 μL) was transferred to a new plate and then analyzed on the Epoch microtiter plate reader at 405-nm. Results are expressed as % hemolysis, which was calculated according to the following equation: % hemolysis=[(405 nm absorbance (Abs) of RBCs in the peptide solution-405 nm Abs in PBS)/(405 nm Abs in 0.1% Triton X-100-405 nm ABs in PBS]×100. Values of >25% hemolysis were defined as poor, 10-25% medium, and <10% as non-hemolytic according to recommended guidelines.

The test system of data set [3] is activated THP-1 monocytic cells. Description: LDH release cytotoxicity, THP-1. The class given is cell-based, human. The arrangement: cytotoxicity, THP-1: unit of the concentration uncertain. As to conditions: for cytotoxicity, THP-1: 100 (unit uncertain). As to the method: as §1, §2
On the technique in general: LDH leaks from cells whose membrane has failed.

Data set [4] relates to invasion of ME-180 cells by FA1090 1-81-S2 gonococci. Nature of the data set: Invasion of human cervical epithelial cells by gonococci. The settings on record: LL-37 20 μM; moi of 5; 4 h. The class given is cell-based. The protocol:
Because the CPP was bactericidal for N. gonorrhoeae and, furthermore, could penetrate the bacteria, it was postulated that treatment may prevent invasion of human epithelial cells. Therefore, the effect of the CPP on the invasion of a human cervical epithelial cell line, ME-180, was tested using the AMP LL-37 for comparison. FA1090 1-81-S2 gonococci at a moi of 5 were incubated with ME-180 cells in 96-well plates with vehicle only, LL-37 (20 μM), or the CPP (100 μM) for 4 h.

For data set [5] the following is noted: in vivo; cited from earlier work.

Where a SMILES comes first, the peptide text is derived from it. Bridges are numbered along the chain shown (N, C = ends). [ ]: non-standard residue; d: D form. Ahx = NCCCCCC(=O)O Where only a bound is given, the exact number is not on record here.

With `N=C(N)NCCC[C@@H]1NC(=O)CSC[C@@H](C(N)=O)NC(=O)[C@H](CCCNC(=N)N)NC(=O)CCCCCNC(=O)[C@H](CCCNC(=N)N)NC(=O)[C@H](CCCNC(=N)N)NC(=O)CCCCCNC(=O)[C@H](CCCNC(=N)N)NC(=O)[C@H](CCCNC(=N)N)NC(=O)CCCCCNC(=O)[C@H](CCCNC(=N)N)NC(=O)[C@H](CCCNC(=N)N)NC(=O)CCCCCNC1=O` [TE cyclized CPP, c [RXRRXRRXRRXRC(S—)]] ({CH2CO}-R[Ahx]RR[Ahx]RR[Ahx]RR[Ahx]RC-NH2; thioether N-13), in data set [1] (200 μM, 18 h), the “cytotoxicity compared to DS cyclized CPP, End1/E6E7” value was “less cytotoxic compared to the DS cyclized CPP” and the “cytotoxicity compared to linear CPP, End1/E6E7” value is “less cytotoxic compared to the linear CPP”. For the same compound, the “cytotoxicity, End1/E6E7” value in data set [1] (100 (unit uncertain)) is on record as “virtually no cytotoxicity”. Moreover, the “MIC for S. aureus” value in data set [2] was > 100 µM. Moreover, the “cytotoxicity compared to DS cyclized CPP, ME-180” value in the data set with ME-180 cervical cells (200 μM, 18 h) is given as “less cytotoxic compared to the DS cyclized CPP”. Moreover, the “cytotoxicity, ME-180” value in the data set on ME-180 cervical cells (100 (unit uncertain)) is “virtually no cytotoxicity”. For the same compound, the “hemolysis of sheep RBCs” value with sheep red blood cells is listed as “no hemolysis”. Moreover, in data set [3] (200 μM, 18 h), the “cytotoxicity compared to DS cyclized CPP, THP-1” value is “less cytotoxic compared to the DS cyclized CPP” and the “cytotoxicity compared to linear CPP, THP-1” value is given as “more cytotoxic”. For the same compound, in data set [3], the “cytotoxicity, THP-1” value is reported as “virtually no cytotoxicity”.
With `N=C(N)NCCC[C@H](NC(=O)CCCCCNC(=O)[C@H](CCCNC(=N)N)NC(=O)[C@H](CCCNC(=N)N)NC(=O)CCCCCNC(=O)[C@H](CCCNC(=N)N)NC(=O)[C@H](CCCNC(=N)N)NC(=O)CCCCCNC(=O)[C@H](CCCNC(=N)N)NC(=O)[C@H](CCCNC(=N)N)NC(=O)CCCCCNC(=O)[C@@H](N)CCCNC(=N)N)C(=O)O` [linear CPP, RXRRXRRXRRXR, reference compound] (H-R[Ahx]RR[Ahx]RR[Ahx]RR[Ahx]R-OH), the “cytotoxicity, End1/E6E7” value in data set [1] (100 (unit uncertain)) is reported as “virtually no cytotoxicity”. For the same compound, the “cytotoxicity, ME-180” value in the data set on ME-180 cervical cells (100 (unit uncertain)) is “virtually no cytotoxicity”. Also, in the data set with sheep red blood cells, the “hemolysis of sheep RBCs” value is “no hemolysis”. Also, in data set [3], the “cytotoxicity, THP-1” value was “virtually no cytotoxicity”. In addition, the “cell death (LDH released), THP-1” value in data set [3] (100 or 200 μM, 18 h) is “not significantly increased”.
As for `N=C(N)NCCC[C@@H]1NC(=O)CCCCCNC(=O)[C@H](CCCNC(=N)N)NC(=O)[C@H](CCCNC(=N)N)NC(=O)CCCCCNC(=O)[C@H](CCCNC(=N)N)NC(=O)[C@H](CCCNC(=N)N)NC(=O)CCCCCNC(=O)[C@H](CCCNC(=N)N)NC(=O)[C@H](CCCNC(=N)N)NC(=O)CCCCCNC(=O)[C@H](CCCNC(=N)N)NC(=O)[C@@H](N)CSSC[C@@H](C(N)=O)NC1=O` [DS cyclized CPP, CRXRRXRRXRRXRC—NH2] (H-CR[Ahx]RR[Ahx]RR[Ahx]RR[Ahx]RC-NH2; disulfide 1-14), the “percentage of dead cells compared to the Triton X-100 treated controls, End1/E6E7” value in data set [1] (100 and 200 mM) is “less than 20%”. Further, in the data set on ME-180 cervical cells (100 and 200 mM), the “percentage of dead cells compared to the Triton X-100 treated controls, ME-180” value was “less than 20%”. The “hemolysis of sheep RBCs” value with sheep red blood cells is “no hemolysis”. The “cell death (LDH), THP-1” value in data set [3] (100 µM, 18 h) was “significantly increased”. Besides, in data set [3] (100 and 200 mM), the “percentage of dead cells compared to the Triton X-100 treated controls, THP-1” value is given as “less than 20%”.
For LL-37 [reference compound], in data set [1] (LL-37 20 µM, 18 h), the “LDH levels, End1/E6E7” value was “more than doubled”. Besides, the “cytotoxicity, End1/E6E7” value in data set [1] (LL-37 20 and 40 mM) is on record as “significant cytotoxicity”. Also, in data set [4], the “invasion of ME-180 cells” value is listed as “completely inhibited invasion”. In addition, in the data set on ME-180 cervical cells (LL-37 20 µM, 18 h), the “LDH levels, ME-180” value is given as “more than doubled”. Besides, in the data set with ME-180 cervical cells (LL-37 20 and 40 mM), the “cytotoxicity, ME-180” value is “significant cytotoxicity”. The “levels of cell death compared to the vehicle-only control, THP-1” value in data set [3] (20 or 40 μM LL-37, 18 h, p<0.001) was “more than doubled”.
As to `CC(=O)N[C@H](CSSC[C@H](N)C(=O)O)C(=O)N[C@H](C)C(=O)N[C@H](CCCNC(=N)N)C(=O)N[C@H](CCCNC(=N)N)C(=O)N[C@H](CCCNC(=N)N)C(=O)N[C@H](C)C(=O)N[C@H](CCCNC(=N)N)C(N)=O` [etelcalcetide], the effective half-life in data set [5] was 3 to 4 days.
